Like-named read-outs stand apart in the source and are kept apart here.
Columns and labels:
[1] = Stereospecificity of inhibition of cell proliferation (D-isomer vs L-isomer); format: cell-based; conditions: 25 μM dose, preparation 95% enriched in D-isomer, p<0.001, FIG. 2
U118 = assay: MTT assay, human cancer cell line U118 (brain); format: cell-based; conditions: U118, 25 μM, 48 hour MTT assay; for inhibition at 25 µM: Homo sapiens, read-out: Percent inhibition of human cancer cell line growth
C6 cells [2] = assay: Cell size and refractile bodies by phase microscopy, C6 cells; format: cell-based; conditions: for cells with one or more refractile bodies / mean number of refractile bodies per cell: C6 cells, after 48 hours
U87 = assay: MTT assay, human cancer cell line U87 (brain); format: cell-based; conditions: U87, 25 μM, 48 hour MTT assay; for inhibition at 25 µM: Homo sapiens, U-87 MG, read-out: Percent inhibition of human cancer cell line growth
HT1376 = assay: MTT assay, human cancer cell line HT1376 (bladder); format: cell-based; conditions: HT1376, 25 μM, 48 hour MTT assay; for inhibition at 25 µM: Homo sapiens, HT-1376, read-out: Percent inhibition of human cancer cell line growth
[3] = test system: human cell lines derived from a variety of cancer types (brain, breast, bladder, lung, and prostate); assay: MTT assay, all ten human cancer cell lines together; format: cell-based; conditions: for inhibition at 25 µM: read-out: inhibition levels (mean±SD)
Calu6 = assay: MTT assay, human cancer cell line Calu6 (lung); format: cell-based; conditions: Calu6, 25 μM, 48 hour MTT assay; for inhibition at 25 µM: Homo sapiens, Calu-6, read-out: Percent inhibition of human cancer cell line growth
J82 = assay: MTT assay, human cancer cell line J82 (bladder); format: cell-based; conditions: J82, 25 μM, 48 hour MTT assay; for inhibition at 25 µM: Homo sapiens, read-out: Percent inhibition of human cancer cell line growth
PC3 = assay: MTT assay, human cancer cell line PC3 (prostate); format: cell-based; conditions: PC3, 25 μM, 48 hour MTT assay; for inhibition at 25 µM: Homo sapiens, PC-3, read-out: Percent inhibition of human cancer cell line growth
Du145 = assay: MTT assay, human cancer cell line Du145 (prostate); format: cell-based; conditions: Du145, 25 μM, 48 hour MTT assay; for inhibition at 25 µM: Homo sapiens, DU-145, read-out: Percent inhibition of human cancer cell line growth
U373 = assay: MTT assay, human cancer cell line U373 (brain); format: cell-based; conditions: U373, 25 μM, 48 hour MTT assay; for inhibition at 25 µM: Homo sapiens, U373 MG, read-out: Percent inhibition of human cancer cell line growth
HS578T = assay: MTT assay, human cancer cell line HS578T (breast); format: cell-based; conditions: 48 hour MTT assay; for inhibition at 25 µM: Homo sapiens, Hs-578T, read-out: Percent inhibition of human cancer cell line growth
C6 glioma cells [4] = assay: MTT cell proliferation assay, C6 glioma cells; format: cell-based; conditions: for IC50: MTT assay, FIG. 1, read-out: IC50, inhibition of C6 glioma cells; for inhibition at 25 µM: 48 h, two days, three different experiments
A172 = assay: MTT assay, human cancer cell line A172 (brain); format: cell-based; conditions: A172, 25 μM, 48 hour MTT assay; for inhibition at 25 µM: Homo sapiens, A 172, read-out: Percent inhibition of human cancer cell line growth
WI38 cells = assay: Cell proliferation assay, normal fibroblast cell line WI38; format: cell-based, rat; conditions: WI-38, 48 h, two days, three different experiments
[5] = test system: human glioma cell line U87; assay: In vivo subcutaneous U87 tumor model in nude mice; design: species or system male nu/nu BALBc mice
Protocol: In vivo subcutaneous model. 10^6 U87 cells were injected into the right […] of male nu/nu BALBc mice (Charles River). Two days after inoculation, the mice received either 0.1 mg/kg ajulemic acid in 0.05 ml of safflower oil, or 0.05 ml safflower oil by oral administration. Thereafter, identical dosings were performed on each Monday, Wednesday, and Friday. When visible tumors appeared, the size of the tumors were estimated by averaging the values of two roughly perpendicular diameters measurements. Visible tumors were measured on the days of drug administration.

W138 cells = assay: Refractile bodies by phase microscopy, W138 cells; format: cell-based; conditions: same length of time and dosage
C6 glioma cells [6] = assay: Co-incubation of C6 glioma cells with a specific CB1 antagonist; format: cell-based; conditions: 3.2 μM of a specific CB1 antagonist
C6 glioma cells [7] = assay: Flow cytometry/cell cycle analysis; format: cell-based; conditions: 25 μM
Protocol: Flow cytometry/cell cycle analysis. For flow cytometry, cells were grown in low serum (0.5%) for two days to synchronize cells in G0/G1, after which they were placed in high serum (10%) for two days. The cells were then labeled with propidium iodide and fixed in 4% paraformaldehyde. Cells were examined using a MoFlo Facs sorter for DNA content.

C6 cells [8] = assay: Lipid incorporation assay (14C-arachidonic acid); format: cell-based; conditions: 25 μM, 48 hours
C6 glioma cells [9] = assay: Electron microscopy and trypan blue exclusion of treated cells; format: cell-based
Protein kinase C (PKC) = Protein kinase C (PKC) assay in C6 cells; format: cell-based; conditions: 25 μM
Protocol: Protein kinase C (PKC) assay. Cells were transferred into MEM media (0.5% serum) and cultured overnight. The next day, cells were treated with either DMSO or 25 μM ajulemic acid for the specified incubation time, after which the plates were trypsinized. 5×10^6 trypsinized cells were assayed for PKC activity using a kit (Calbiochem, cat. no. 53984).

[10] = 48 hours, mean over the ten human lines
[11] = two days in 10% serum after synchronization
[12] = two days in 10% serum after synchronization, listed as AJA

## CCCCCCC(C)(C)c1cc(O)c2c(c1)OC(C)(C)[C@@H]1CC=C(C(=O)O)C[C@@H]21 (single isomer, unassigned) [D-isomer of ajulemic acid]
[1]
  potency of D-isomer compared to L-isomer of ajulemic acid: marked decrease in the potency

## CCCCCc1cc(O)c2c(c1)OC(C)(C)[C@@H]1CC=C(C(=O)O)C[C@@H]21 [THC-11-oic acid]
U118
  Percent inhibition of human cancer cell line growth: 14 ± 3%
C6 cells [2]; C6 glioma cells, 25 μM, 48 hours
  refractile bodies noted (in words): no refractile bodies
U87
  Percent inhibition of human cancer cell line growth: 5 ± 1%
HT1376
  Percent inhibition of human cancer cell line growth: 21 ± 12%
[3]; 25 μM, 48 hours, mean over the ten human lines
  inhibition levels (mean±SD): 13.1±18.5%
Calu6
  Percent inhibition of human cancer cell line growth: 19 ± 5%
J82
  Percent inhibition of human cancer cell line growth: 1 ± 1%
PC3
  Percent inhibition of human cancer cell line growth: 1 ± 1%
Du145
  Percent inhibition of human cancer cell line growth: 7 ± 3%
U373
  Percent inhibition of human cancer cell line growth: 0%
HS578T; 25 μM
  Percent inhibition of human cancer cell line growth: 2 ± 1%
C6 glioma cells [4]
  IC50: 20 µM
A172
  Percent inhibition of human cancer cell line growth: 61 ± 2%

## CCCCCCC(C)(C)c1cc(O)c2c(c1)OC(C)(C)[C@@H]1CC=C(C(=O)O)C[C@@H]21 [ajulemic acid, 1′,1′-dimethylheptyl-Δ^8-THC-11-oic acid]
U118
  inhibition at 25 µM: 60 ± 2%
C6 cells [2]
  cells with one or more refractile bodies: 83%
  mean number of refractile bodies per cell: 1.78±1.6 per cell
C6 cells [2]; after 48 hours of exposure
  cell size: marked increase in cell size
U87
  inhibition at 25 µM: 54 ± 2%
WI38 cells
  inhibition at 25 µM: 44%
HT1376
  inhibition at 25 µM: 60 ± 2%
[5]; 0.1 mg/kg thrice weekly, FIG. 4
  appearance and size of tumors (in words): delay in both the appearance and size of tumors
[5]; day 25 post-inoculation, 0.1 mg/kg oral thrice weekly, n=5, p=0.015
  mean tumor diameter: 3.8±8.5 mm
W138 cells
  refractile bodies noted (in words): no refractile bodies
C6 glioma cells [6]
  change of effect on co-incubation with CB1 antagonist (in words): slight potentiation
[3]; 25 μM, p<0.05, in six of the ten lines tested
  effectiveness compared to THC: significantly more effective
[3]; [10]
  inhibition at 25 µM: 61.3 ± 12.1%
Calu6
  inhibition at 25 µM: 69 ± 3%
J82
  inhibition at 25 µM: 57 ± 3%
C6 glioma cells [7]; two days
  rate of apoptosis (sub-G0 cells): not increased
C6 glioma cells [7]; [11]
  G0/G1 (mean % ± SD): 39.1 ± 1.3 %
  G2/M (mean % ± SD): 32.3%
  S (mean % ± SD): 13.0%
C6 glioma cells [7]; [12]
  G2/M (mean % ± SD): 32.3 ± 3.0 %
  S (mean % ± SD): 13.0 ± 2.3 %
PC3
  inhibition at 25 µM: 69 ± 2%
Du145
  inhibition at 25 µM: 74 ± 2%
U373
  inhibition at 25 µM: 34 ± 1%
HS578T
  inhibition at 25 µM: 60 ± 2%
C6 glioma cells [4]
  inhibition at 25 µM: 65%
C6 glioma cells [4]; C6 glioma
  IC50: 55 µM
A172
  inhibition at 25 µM: 76 ± 1%
C6 cells [8]
  content of tri- and di-glyceride versus controls: over three-fold greater
C6 cells [8]; p<0.05 vs control, FIG. 3
  neutral lipids versus basal levels: significant increase above basal levels
C6 glioma cells [9]
  recovery upon drug removal: recover quickly upon drug removal
  state of treated cells under electron microscopy: neither apoptotic nor necrotic
C6 glioma cells [9]; treated cells
  viability rate by trypan blue exclusion: > 95%
Protein kinase C (PKC)
  onset of PKC activity increase: increased within five minutes
Protein kinase C (PKC); for one hour
  PKC activity versus control: approximately two-fold above that of control

## CCCCCc1cc(O)c2c(c1)OC(C)(C)[C@@H]1CCC(C)=C[C@@H]21 [Δ^9-THC, tetrahydrocannabinol]
U118
  inhibition at 25 µM: 39 ± 5%
C6 cells [2]
  cells with one or more refractile bodies: 27%
  mean number of refractile bodies per cell: 0.22±0.5 per cell
U87
  inhibition at 25 µM: 20 ± 5%
WI38 cells
  inhibition at 25 µM: 66%
HT1376
  inhibition at 25 µM: 23 ± 5%
C6 glioma cells [6]
  decrease in potency on co-incubation with CB1 antagonist: 150%
[3]; [10]
  inhibition at 25 µM: 39.4 ± 22%
Calu6
  inhibition at 25 µM: 28 ± 5%
J82
  inhibition at 25 µM: 63 ± 6%
PC3
  inhibition at 25 µM: 72 ± 2%
Du145
  inhibition at 25 µM: 55 ± 7%
U373
  inhibition at 25 µM: 0%
HS578T
  inhibition at 25 µM: 52 ± 5%
C6 glioma cells [4]
  inhibition at 25 µM: 50%
C6 glioma cells [4]; C6 glioma
  IC50: 10 µM
A172
  inhibition at 25 µM: 42 ± 5%

Reference: patent US6448288B1, “Cannabinoid drugs” (University of Massachusetts, priority 2000, dated 2002)
